Results taken from patent US20200181117A1, “SUBSTITUTED 3-HETEROARYLOXY-1H-PYRAZOLES AND SALTS THEREOF AND THEIR USE AS HERBICIDAL ACTIVE SUBSTANCES” (BAYER CROPSCIENCE AKTIENGESELLSCHAFT, priority 2017, published 2020).

How the values were obtained:
Type in all cases: in vivo
[1] = test system: Amaranthus retroflexus; experiment: Post-emergence herbicidal action; details: 1280 g/ha, rated visually after about 3 weeks vs untreated controls
Experimental: (§1) A. Post-Emergence Herbicidal Action and Crop Plant Compatibility Seeds of monocotyledonous and dicotyledonous weeds and crop plants were placed in sandy loam in plastic or wood-fiber pots, covered with soil and cultivated in a greenhouse under controlled growth conditions. 2 to 3 weeks after sowing, the test plants were treated at the one-leaf stage. The compounds of the invention, formulated in the form of wettable powders (WP) or as emulsion concentrates (EC), were then sprayed onto the green parts of the plants as aqueous suspension or emulsion with addition of 0.5% additive at a water application rate of 600 l/ha (converted). After the test plants had been kept in the greenhouse under optimum growth conditions for about 3 weeks, the activity of the preparations was rated visually in comparison to untreated controls. For example, 100% activity=the plants have died, 0% activity=like control plants. Tables B1 to B15 below show the effects of selected compounds of the general formula (I) according to Table I on various harmful plants and an application rate corresponding to 1280 g/ha, which were obtained by the experimental procedure mentioned above.

[2] = test system: Stellaria media; experiment: Post-emergence herbicidal action; details: 1280 g/ha, rated visually after about 3 weeks vs untreated controls
Experimental: as §1

[3] = test system: Viola tricolor; experiment: Post-emergence herbicidal action; details: 1280 g/ha, rated visually after about 3 weeks vs untreated controls
Experimental: as §1

[4] = test system: Polygonum convolvulus; experiment: Post-emergence herbicidal action; details: 1280 g/ha, rated visually after about 3 weeks vs untreated controls
Experimental: as §1

[5] = test system: Setaria viridis; experiment: Post-emergence herbicidal action; details: 1280 g/ha, rated visually after about 3 weeks vs untreated controls
Experimental: as §1

[6] = test system: Pharbitis purpurea; experiment: Post-emergence herbicidal action; details: 1280 g/ha, rated visually after about 3 weeks vs untreated controls
Experimental: as §1

[7] = test system: Abutilon theophrasti; experiment: Post-emergence herbicidal action; details: 1280 g/ha, rated visually after about 3 weeks vs untreated controls
Experimental: as §1

[8] = test system: Amaranthus retroflexus; experiment: Pre-emergence herbicidal action; details: 1280 g/ha, scored visually after about 3 weeks vs untreated controls
Source text: (§2) Pre-Emergence Herbicidal Action and Crop Plant Compatibility Seeds of monocotyledonous and dicotyledonous weed plants and crop plants were placed in plastic or wood fiber pots and covered with soil. The compounds of the invention, formulated in the form of wettable powders (WP) or as emulsion concentrates (EC), were then applied onto the surface of the covering soil as aqueous suspension or emulsion with addition of 0.5% additive at a water application rate of 600 l/ha (converted). After the treatment, the pots were placed in a greenhouse and kept under good growth conditions for the test plants. After about 3 weeks, the effect of the preparations was scored visually in comparison with untreated controls as percentages. For example, 100% activity=the plants have died, 0% activity=like control plants. Tables C1 to C14 below show the effects of selected compounds of the general formula (I) according to Table I on various harmful plants and an application rate corresponding to 1280 g/ha, which were obtained by the experimental procedure mentioned above.

[9] = test system: Stellaria media; experiment: Pre-emergence herbicidal action; details: 1280 g/ha, scored visually after about 3 weeks vs untreated controls
Source text: as §2

[10] = test system: Lolium rigidum; experiment: Pre-emergence herbicidal action; details: 1280 g/ha, scored visually after about 3 weeks vs untreated controls
Source text: as §2

[11] = test system: Veronica persica; experiment: Pre-emergence herbicidal action; details: 1280 g/ha, scored visually after about 3 weeks vs untreated controls
Source text: as §2

[12] = test system: Echinochloa crus-galli; experiment: Pre-emergence herbicidal action; details: 1280 g/ha, scored visually after about 3 weeks vs untreated controls
Source text: as §2

[13] = test system: Viola tricolor; experiment: Pre-emergence herbicidal action; details: 1280 g/ha, scored visually after about 3 weeks vs untreated controls
Source text: as §2

[14] = test system: Polygonum convolvulus; experiment: Pre-emergence herbicidal action; details: 1280 g/ha, scored visually after about 3 weeks vs untreated controls
Source text: as §2

[15] = test system: Alopecurus myosuroides; experiment: Pre-emergence herbicidal action; details: 1280 g/ha, scored visually after about 3 weeks vs untreated controls
Source text: as §2

[16] = test system: Matricaria inodora; experiment: Pre-emergence herbicidal action; details: 1280 g/ha, scored visually after about 3 weeks vs untreated controls
Source text: as §2

[17] = test system: Hordeum murinum; experiment: Pre-emergence herbicidal action; details: 1280 g/ha, scored visually after about 3 weeks vs untreated controls
Source text: as §2

[18] = test system: Setaria viridis; experiment: Pre-emergence herbicidal action; details: 1280 g/ha, scored visually after about 3 weeks vs untreated controls
Source text: as §2

[19] = test system: Abutilon theophrasti; experiment: Pre-emergence herbicidal action; details: 1280 g/ha, scored visually after about 3 weeks vs untreated controls
Source text: as §2

[20] = test system: Alopecurus myosuroides; experiment: Post-emergence herbicidal action; details: 1280 g/ha, rated visually after about 3 weeks vs untreated controls
Experimental: as §1

[21] = test system: Avena fatua; experiment: Pre-emergence herbicidal action; details: 1280 g/ha, scored visually after about 3 weeks vs untreated controls
Source text: as §2

[22] = test system: Echinochloa crus-galli; experiment: Post-emergence herbicidal action; details: 1280 g/ha, rated visually after about 3 weeks vs untreated controls
Experimental: as §1

Row | Compound | herbicidal activity on Amaranthus retroflexus [1] | herbicidal activity on Stellaria media [2] | herbicidal activity on Viola tricolor [3] | herbicidal activity on Polygonum convolvulus [4] | herbicidal activity on Setaria viridis [5] | herbicidal activity on Abutilon theophrasti [7] | herbicidal activity on Amaranthus retroflexus [8] | herbicidal activity on Stellaria media [9] | herbicidal activity on Lolium rigidum [10] | herbicidal activity on Veronica persica [11] | herbicidal activity on Echinochloa crus-galli [12] | herbicidal activity on Viola tricolor [13] | herbicidal activity on Polygonum convolvulus [14] | herbicidal activity on Alopecurus myosuroides [15] | herbicidal activity on Matricaria inodora [16] | herbicidal activity on Hordeum murinum [17] | herbicidal activity on Setaria viridis [18] | herbicidal activity on Abutilon theophrasti [19] | herbicidal activity on Alopecurus myosuroides [20] | herbicidal activity on Avena fatua [21] | other results
1 | CCc1c(Sc2ccc(F)c(F)c2)c(Oc2ncc(F)cn2)nn1C [Example I-037] | 100% | 100% | 100% | 80% | 100% | 90% | 100% | 100% | 100% | 100% | 100% | 100% | 100% | 100% | 90% | 90% | 100% | 100% | – | – | herbicidal activity on Pharbitis purpurea [6]: 100%
2 | CCc1c(Sc2ccccc2)c(Oc2ncccn2)nn1C [Example I-063] | 100% | – | 100% | – | 80% | 100% | 100% | 90% | – | – | 100% | 100% | 100% | 100% | 100% | 100% | 100% | 100% | 100% | 100% | –
3 | Cc1c(Sc2ccc(F)cc2)c(Oc2ncc(F)cn2)nn1C [Example I-090] | 100% | 100% | 100% | 100% | 100% | 100% | 100% | 100% | 90% | 100% | 100% | 100% | 90% | 100% | 100% | 100% | 100% | 100% | 100% | 100% | herbicidal activity on Echinochloa crus-galli [22]: 80%
4 | Cc1c(Sc2ccc(F)cc2F)c(Oc2ncc(F)cn2)nn1C [Example I-115] | 100% | 100% | 100% | 90% | 100% | 100% | 100% | 90% | 80% | 100% | 100% | 100% | 90% | 90% | 90% | – | 100% | 100% | – | – | –
5 | COc1cnc(Oc2nn(C)c(C)c2Sc2cccc(Cl)c2)nc1 [Example I-134] | 100% | – | 100% | 80% | – | 90% | 100% | 100% | 100% | 100% | 90% | 100% | 100% | 100% | 100% | 90% | 100% | 100% | 90% | 80% | herbicidal activity on Echinochloa crus-galli [22]: 80%; herbicidal activity on Pharbitis purpurea [6]: 80%
6 | Fc1cnc(Oc2nn3c(c2Sc2ccc(F)cc2F)CCOCC3)nc1 [Example I-192] | – | – | 80% | 100% | – | 80% | 80% | 90% | – | 100% | 100% | 100% | 100% | 100% | 100% | 90% | 100% | 100% | 80% | – | herbicidal activity on Echinochloa crus-galli [22]: 80%
